Laboratory results taken from patent publication US8680159B2, “Bradykinin 1 receptor modulating compounds” (Gruenenthal GmbH, priority 2010, dated 2014).

Target: T1, B1R receptor of the rat (CHO K1 cells stably transfected with the B1R gene of the rat) (Rattus norvegicus, UniProt P97583)
T1 construct: expressed in transfected cells; host or cells: CHO K1 cells (Chinese hamster ovary), stably transfected
T1 sequence (P97583 1-337): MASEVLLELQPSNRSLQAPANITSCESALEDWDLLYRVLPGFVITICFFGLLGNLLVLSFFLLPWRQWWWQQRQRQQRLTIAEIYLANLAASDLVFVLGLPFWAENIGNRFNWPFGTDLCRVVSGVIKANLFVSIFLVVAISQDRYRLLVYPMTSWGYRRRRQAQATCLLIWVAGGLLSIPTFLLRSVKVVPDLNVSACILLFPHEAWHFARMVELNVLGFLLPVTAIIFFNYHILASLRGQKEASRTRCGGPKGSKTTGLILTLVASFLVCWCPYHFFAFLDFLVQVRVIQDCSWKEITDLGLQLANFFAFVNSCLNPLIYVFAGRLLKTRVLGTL
Assay: Functional study on the bradykinin receptor 1 (B1R), Ca2+ fluorescence (Fluo-4) FLIPR/Novostar assay, rB1R cells
Type: cell-based
Conditions: CHO-K1, 10 μM, read-out: % Inhibition (r-B1R) at 10 μM
How it was run: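 Stably transfected CHO K1 cells carrying human or rat B1R were Fluo-4 loaded and Ca2+ fluorescence read by FLIPR or Novostar. Compounds were added first at 10 μM for % activation, then the EC80 agonist was applied after 6-20 min (human: Lys-Des-Arg9-bradykinin; rat: Des-Arg9-bradykinin). % inhibition is relative to maximum achievable inhibition, and IC50 comes from concentration series.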

Point of comparison: `Cc1cc(N2CCC(N(C)C(=O)c3ccc4c(c3)C(NC(=O)Nc3ccc(Cl)cc3Cl)CC4)CC2)cc(C)n1` (stereo not shown) [CC_H-310, 3-[[(2,4-Dichlorophenyl)-carbamoyl]amino]-N-[1-(2,6-dimethyl-pyridin-4-yl)-piperidin-4-yl]-N-methyl-2,3-dihydro-1H-indene-5-carboxylic acid amide], inhibition at 10 µM 101%. Against it:
- COCC(=O)NC1CCc2ccc(C(=O)N(C)C3CCN(c4cc(C)nc(C)c4)CC3)cc21 (stereo not shown) [CC_H-300, N-[1-(2,6-Dimethyl-pyridin-4-yl)-piperidin-4-yl]-3-[(2-methoxy-acetyl)amino]-N-methyl-2,3-dihydro-1H-indene-5-carboxylic acid amide] — higher, 103%
- Cc1cc(N2CCC(N(C)C(=O)c3ccc4c(c3)C(NS(=O)(=O)Cc3ccccc3C(F)(F)F)CC4)CC2)cc(C)n1 (stereo not shown) [CC_H-302, N-[1-(2,6-Dimethyl-pyridin-4-yl)-piperidin-4-yl]-N-methyl-3-[[[2-(trifluoromethyl)-phenyl]-methylsulfonyl]amino]-2,3-dihydro-1H-indene-5-carboxylic acid amide] — higher, 112%
- Cc1cc(N2CCC(N(C)C(=O)c3ccc4c(c3)C(NC(=O)c3cccc(C(F)(F)F)c3Cl)CC4)CC2)cc(C)n1 (stereo not shown) [CC_H-303, 3-[[2-Chloro-3-(trifluoromethyl)-benzoyl]amino]-N-[1-(2,6-dimethyl-pyridin-4-yl)-piperidin-4-yl]-N-methyl-2,3-dihydro-1H-indene-5-carboxylic acid amide] — higher, 112%
- Cc1cc(N2CCC(N(C)C(=O)c3ccc4c(c3)C(NC(=O)Nc3ccccc3Cl)CC4)CC2)cc(C)n1 (stereo not shown) [CC_H-304, 3-[[(2-Chlorophenyl)-carbamoyl]amino]-N-[1-(2,6-dimethyl-pyridin-4-yl)-piperidin-4-yl]-N-methyl-2,3-dihydro-1H-indene-5-carboxylic acid amide] — lower, 98%
- Cc1cc(N2CCC(N(C)C(=O)c3ccc4c(c3)C(NC(=O)Nc3cccc(Cl)c3)CC4)CC2)cc(C)n1 (stereo not shown) [CC_H-305, 3-[[(3-Chlorophenyl)-carbamoyl]amino]-N-[1-(2,6-dimethyl-pyridin-4-yl)-piperidin-4-yl]-N-methyl-2,3-dihydro-1H-indene-5-carboxylic acid amide] — higher, 109%
- Cc1cc(N2CCC(N(C)C(=O)c3ccc4c(c3)C(NC(=O)Nc3c(Cl)cccc3Cl)CC4)CC2)cc(C)n1 (stereo not shown) [CC_H-306, 3-[[(2,6-Dichloro-phenyl)-carbamoyl]amino]-N-[1-(2,6-dimethyl-pyridin-4-yl)-piperidin-4-yl]-N-methyl-2,3-dihydro-1H-indene-5-carboxylic acid amide] — higher, 107%
- Cc1cc(N2CCC(N(C)C(=O)c3ccc4c(c3)C(NC(=O)Nc3cccc(Cl)c3Cl)CC4)CC2)cc(C)n1 (stereo not shown) [CC_H-307, 3-[[(2,3-Dichloro-phenyl)-carbamoyl]amino]-N-[1-(2,6-dimethyl-pyridin-4-yl)-piperidin-4-yl]-N-methyl-2,3-dihydro-1H-indene-5-carboxylic acid amide] — lower, 91%
- Cc1cc(N2CCC(N(C)C(=O)c3ccc4c(c3)C(NC(=O)Nc3cc(Cl)ccc3Cl)CC4)CC2)cc(C)n1 (stereo not shown) [CC_H-308, 3-[[(2,5-Dichloro-phenyl)-carbamoyl]amino]-N-[1-(2,6-dimethyl-pyridin-4-yl)-piperidin-4-yl]-N-methyl-2,3-dihydro-1H-indene-5-carboxylic acid amide] — lower, 96%
- Cc1cc(N2CCC(N(C)C(=O)c3ccc4c(c3)C(NC(=O)Nc3cc(C(F)(F)F)ccc3Cl)CC4)CC2)cc(C)n1 (stereo not shown) [CC_H-311, 3-[[[2-Chloro-5-(trifluoromethyl)-phenyl]-carbamoyl]amino]-N-[1-(2,6-dimethyl-pyridin-4-yl)-piperidin-4-yl]-N-methyl-2,3-dihydro-1H-indene-5-carboxylic acid amide] — lower, 80%
